The subject of the experiment is A2780 cells. Put plainly: Deoxy-glucose uptake assay in A2780 cells (14C 2-deoxy-D-glucose transport). It is filed as cell-based. The conditions noted are these: Homo sapiens; for IC50: 20 min, inhibition of 14C 2-deoxy-D-glucose transport into A2780 cells, 20 min compound incubation, read-out: IC50. The method, then:
1. Deoxy-Glucose Uptake Assay in A2780 Cells:
For measurement of ^14C 2-deoxy-D-glucose transport into A2780 cells, cells were seeded in 96-well plates (Cytostar-T Plates Perkin Elmer, 70,000 cells/180 μl/well) in medium complete (RPMI1640+Glutamax (Life technologies #61870)) and grown for 48 hours. After 48 h, cells were washed once with 180 μL KRB (Krebs Ringer Bicarbonate) buffer, and stimulated in a dose dependent manner by adding 10 μL of test compound dilution 0-1.1 mM (11 times higher concentration than final) or 10 μL of 1.1 mM Cytochalasin B solution as negative control, to 90 μL KRB buffer and incubated for 20 minutes. After compound stimulation, the transport of ^14C 2-deoxy-D-glucose was started by adding of 50 μL 2-^14C[U] 2-deoxy-D-glucose solution (109.1 μM 2-deoxy-D-glucose cold and 33 μM 2-^14C[U] 2-deoxy-D-glucose 0.1 μCi/well) for 20 minutes. Transport was stopped by adding 50 μL/well 96 μM Cytochalasin B solution. Plates were measured in a 96-well Wallac Microbeta device. The cpm (counts per minute) values were used to determine the % inhibition values for the test compounds within each experiment. In a first step, the mean background value generated by Cytochalasin B (a potent glucose transporter inhibitor) treated cells, was subtracted from the mean values of the treated cells. All mean values were obtained from triplicates. For %-Inhibition results, the mean value of the untreated cells (just KRB) was set as 100%. All other mean values were calculated to this relation. IC50 were obtained by regression analysis of dose response curve with 7 or 14 concentrations, respectively, for each compound.

What is called IC50 is the point on the concentration scale where inhibition reaches its midpoint. As for `COc1cc(OCc2cccc(OCCCCCC(=O)O)c2)c(Cl)cc1C(=O)N[C@H]1[C@@H](OC)O[C@H](CO)[C@@H](O)[C@@H]1O` [Example 398], the 50% inhibitory concentration (IC50) was 85.9 µM.

Regarding `COC(=O)[C@H](CCCCNC(=O)COCCOCC(=O)NCc1cccc(COc2cc(OC)c(C(=O)O[C@H]3[C@@H](OC)O[C@H](CO)[C@@H](O)[C@@H]3O)cc2Cl)c1)NC(=O)OC(C)(C)C` [Example 399], the IC50 is 20.2 µM.

As for `COc1cc(OCc2cccc(NC(=O)COCCOCC(=O)O)c2)c(Cl)cc1C(=O)O[C@H]1[C@@H](OC)O[C@H](CO)[C@@H](O)[C@@H]1O` [Example 400], the half-maximal inhibitory concentration (IC50) came to 47.1 µM.

Take `COc1cc(OCc2cccc(CNC(=O)CCC(=O)NCCCCCC(=O)O)c2)c(Cl)cc1C(=O)O[C@H]1[C@@H](OC)O[C@H](CO)[C@@H](O)[C@@H]1O` [Example 405]: the half-maximal inhibitory concentration (IC50) is 60.5 µM.

For `COc1cc(OCc2cccc(CNC(=O)CCCCCCC(=O)O)c2)c(Cl)cc1C(=O)O[C@H]1[C@@H](OC)O[C@H](CO)[C@@H](O)[C@@H]1O` [Example 408], the half-inhibitory concentration (IC50) turned out to be 45 µM.

In the case of `COC(=O)[C@H](CCCCNC(=O)CCCCCNC(=O)CCC(=O)NCc1cccc(COc2cc(OC)c(C(=O)O[C@H]3[C@@H](OC)O[C@H](CO)[C@@H](O)[C@@H]3O)cc2Cl)c1)NC(=O)OC(C)(C)C` [Example 411], the IC50 is 25.9 µM.

On to `COC(=O)[C@H](CCCCNC(=O)CCCCCCC(=O)Nc1cccc(COc2cc(OC)c(C(=O)O[C@H]3[C@@H](OC)O[C@H](CO)[C@@H](O)[C@@H]3O)cc2Cl)c1)NC(=O)OC(C)(C)C` [Example 414], for which the IC50 turned out to be 0.7 µM.

Consider `COc1cc(OCc2nc3ccccc3n2CCCCCCCCCCCCCCCC(=O)O)c(Cl)cc1C(=O)N[C@H]1[C@@H](OC)O[C@H](CO)[C@@H](O)[C@@H]1O` [Example 421], for which the 50% inhibitory concentration (IC50) is 15.1 µM.

On to `COc1cc(OCc2cccc(CNC(=O)CCCCCCCCC(=O)OC(C)(C)C)c2)c(Cl)cc1C(=O)N[C@H]1[C@@H](OC)O[C@H](CO)[C@@H](O)[C@@H]1O` [Example 427], for which the IC50 turned out to be 60.5 µM.

For the molecule `COc1cc(OCc2cccc(NC(=O)CCC(=O)OC(C)(C)C)c2)c(Cl)cc1C(=O)N[C@H]1[C@@H](OC)O[C@H](CO)[C@@H](O)[C@@H]1O` [Example 428], the IC50 was 4.4 µM.

For `COc1cc(OCc2cccc(NC(=O)CCCC(=O)OC(C)(C)C)c2)c(Cl)cc1C(=O)N[C@H]1[C@@H](OC)O[C@H](CO)[C@@H](O)[C@@H]1O` [Example 429], the half-maximal inhibitory concentration (IC50) was 2.9 µM.

Turning to `COc1cc(OCc2cccc(NC(=O)CCCCCCCCC(=O)OC(C)(C)C)c2)c(Cl)cc1C(=O)N[C@H]1[C@@H](OC)O[C@H](CO)[C@@H](O)[C@@H]1O` [Example 431], the half-inhibitory concentration (IC50) was determined as 6.1 µM.

As to `COC(=O)[C@H](CCCCNC(=O)CCC(=O)NCc1cccc(COc2cc(OC)c(C(=O)N[C@H]3[C@@H](OC)O[C@H](CO)[C@@H](O)[C@@H]3O)cc2Cl)c1)NC(=O)OC(C)(C)C` [Example 435], the IC50 turned out to be 45.3 µM.

With `COC(=O)[C@H](CCCCNC(=O)CCCC(=O)NCc1cccc(COc2cc(OC)c(C(=O)N[C@H]3[C@@H](OC)O[C@H](CO)[C@@H](O)[C@@H]3O)cc2Cl)c1)NC(=O)OC(C)(C)C` [Example 436], the concentration for half-maximal inhibition (IC50) was found to be 34.2 µM.

With `COc1c(C(=O)N[C@H]2[C@H](OC)O[C@H](CO)[C@@H](O)[C@@H]2O)cc(Cl)c(OCc2cccc(CNC(=O)OC(C)(C)C)c2)c1Cl` [Example 447], the 50% inhibitory concentration (IC50) is 30.6 µM.

On to `CO[C@H]1O[C@H](CO)[C@@H](O)[C@H](O)[C@H]1NC(=O)c1cc(Cl)c(OCc2cccc(CNC(=O)CCC(=O)OC(C)(C)C)c2)c(Cl)c1C` [Example 449], for which the concentration for half-maximal inhibition (IC50) is 18.5 µM.

`CO[C@H]1O[C@H](CO)[C@@H](O)[C@H](O)[C@H]1NC(=O)c1cc(Cl)c(OCc2cccc(CNC(=O)CCCC(=O)OC(C)(C)C)c2)c(Cl)c1C` [Example 450]: the half-maximal inhibitory concentration (IC50) turned out to be 25.8 µM.

Turning to `CO[C@H]1O[C@H](CO)[C@@H](O)[C@H](O)[C@H]1NC(=O)c1cc(Cl)c(OCc2cccc(NC(=O)CCCCCCC(=O)OC(C)(C)C)c2)c(Cl)c1C` [Example 454], the IC50 was 25.6 µM.

On to `CO[C@H]1O[C@H](CO)[C@@H](O)[C@H](O)[C@H]1OC(=O)c1cc(Cl)c(OCc2cccc(CNC(=O)CCCCCCCCC(=O)OC(C)(C)C)c2)c(Cl)c1C` [Example 456], for which the IC50 worked out at 25 µM.

On to `COc1cc(OCc2cccc(CNC(=O)CCCCCCC(=O)NCCCCCC(=O)OC(C)(C)C)c2)c(Cl)cc1C(=O)N[C@H]1[C@@H](OC)O[C@H](CO)[C@@H](O)[C@@H]1O` [Example 457], for which the half-inhibitory concentration (IC50) turned out to be 31.7 µM.

`COC(=O)[C@H](CCCCNC(=O)CCCC(=O)NCc1cccc(COc2c(Cl)cc(C(=O)N[C@H]3[C@@H](OC)O[C@H](CO)[C@@H](O)[C@@H]3O)c(C)c2Cl)c1)NC(=O)OC(C)(C)C` [Example 460]: the half-inhibitory concentration (IC50) stood at 84.6 µM.

As to `COC(=O)[C@H](CCCCNC(=O)CCCC(=O)Nc1cccc(COc2c(Cl)cc(C(=O)N[C@H]3[C@@H](OC)O[C@H](CO)[C@@H](O)[C@@H]3O)c(C)c2Cl)c1)NC(=O)OC(C)(C)C` [Example 463], the IC50 was 25.1 µM.

As for `COC(=O)[C@H](CCCCNC(=O)CCCCCCC(=O)Nc1cccc(COc2c(Cl)cc(C(=O)N[C@H]3[C@@H](OC)O[C@H](CO)[C@@H](O)[C@@H]3O)c(C)c2Cl)c1)NC(=O)OC(C)(C)C` [Example 464], the half-inhibitory concentration (IC50) was 44 µM.

Regarding `COC(=O)[C@H](CCCCNC(=O)CCCCCCCCC(=O)Nc1cccc(COc2c(Cl)cc(C(=O)N[C@H]3[C@@H](OC)O[C@H](CO)[C@@H](O)[C@@H]3O)c(C)c2Cl)c1)NC(=O)OC(C)(C)C` [Example 465], the IC50 turned out to be 49.9 µM.

Turning to `COc1cc(OCc2cccc(NC(=O)CCCCCCC(=O)NCCCCCC(=O)OC(C)(C)C)c2)c(Cl)cc1C(=O)N[C@H]1[C@@H](OC)O[C@H](CO)[C@@H](O)[C@@H]1O` [Example 466], the 50% inhibitory concentration (IC50) was 3.4 µM.

As to `COc1cc(OCc2cccc(NC(=O)CCCCCCCCC(=O)NCCCCCC(=O)OC(C)(C)C)c2)c(Cl)cc1C(=O)N[C@H]1[C@@H](OC)O[C@H](CO)[C@@H](O)[C@@H]1O` [Example 467], the half-inhibitory concentration (IC50) is 27.9 µM.

Take `COC(=O)[C@H](CCCCNC(=O)CCCCCNC(=O)CCCCCCC(=O)NCc1cccc(COc2cc(OC)c(C(=O)N[C@H]3[C@@H](OC)O[C@H](CO)[C@@H](O)[C@@H]3O)cc2Cl)c1)NC(=O)OC(C)(C)C` [Example 468]: the IC50 was determined as 27.8 µM.

Regarding `COC(=O)CCCCCCCn1c(COc2cc(OC)c(C(=O)N[C@H]3[C@@H](OC)O[C@H](CO)[C@@H](O)[C@@H]3O)cc2Cl)nc2ccccc21` [Example 470], the half-maximal inhibitory concentration (IC50) came to 61.4 µM.

As to `COc1cc(OCc2coc(-c3ccc(C(F)(F)F)cc3)n2)c(Cl)cc1C(=O)O[C@H]1[C@@H](OC)O[C@H](CO)[C@@H](O)[C@@H]1O` [Example 473], the half-maximal inhibitory concentration (IC50) is less than 0.1 µM.

In the case of `COc1cc(OCc2coc(-c3ccc(Cl)cc3)n2)c(Cl)cc1C(=O)O[C@H]1[C@@H](OC)O[C@H](CO)[C@@H](O)[C@@H]1O` [Example 474], the IC50 was less than 0.1 µM.

For `COc1cc(OCc2cnc(-c3ccc(Cl)cc3)o2)c(Cl)cc1C(=O)O[C@H]1[C@@H](OC)O[C@H](CO)[C@@H](O)[C@@H]1O` [Example 475], the IC50 is less than 0.1 µM.

For `COc1cc(OCc2ccc(-c3csnn3)cc2)c(Cl)cc1C(=O)O[C@H]1[C@@H](OC)O[C@H](CO)[C@@H](O)[C@@H]1O` [Example 476], the concentration for half-maximal inhibition (IC50) was less than 0.1 µM.

As to `COc1cc(OCc2nnc(-c3ccc(Cl)cc3)s2)c(Cl)cc1C(=O)O[C@H]1[C@@H](OC)O[C@H](CO)[C@@H](O)[C@@H]1O` [Example 477], the half-maximal inhibitory concentration (IC50) worked out at 3.7 µM.

Take `COc1cc(OCc2sc(C)nc2C(F)(F)F)c(Cl)cc1C(=O)O[C@H]1[C@@H](OC)O[C@H](CO)[C@@H](O)[C@@H]1O` [Example 478]: the IC50 is 0.24 µM.

As for `COc1cc(OCc2ccc(-c3nccs3)cc2)c(Cl)cc1C(=O)O[C@H]1[C@@H](OC)O[C@H](CO)[C@@H](O)[C@@H]1O` [Example 479], the IC50 is less than 0.1 µM.

Regarding `COc1cccc(COc2cc(OC)c(C(=O)O[C@H]3[C@@H](OC)O[C@H](CO)[C@@H](O)[C@@H]3O)cc2Cl)n1` [Example 480], the IC50 was found to be 4.6 µM.

On to `COc1cc(OCc2nc3ccccc3n2Cc2ccccc2)c(Cl)cc1C(=O)O[C@H]1[C@@H](OC)O[C@H](CO)[C@@H](O)[C@@H]1O` [Example 481], for which the IC50 stood at 0.6 µM.

With `COc1cc(OCc2cnc(OC)c(NCC(=O)O)c2)c(Cl)cc1C(=O)N[C@H]1[C@@H](OC)O[C@H](CO)[C@@H](O)[C@@H]1O` [Example 483], the IC50 amounted to 36 µM.

On to `O=C(NC[C@@H]1O[C@H](CO)[C@@H](O)[C@H](O)[C@H]1O)c1ccc(COc2ccccc2)o1` [Example 490], for which the inhibition at 100 µM (inhibition of 14C 2-deoxy-D-glucose transport into A2780 cells at 100 μM, read-out: % inh. at 100 μM) turned out to be 20%.

These data come from patent publication US20210170033A1, “NOVEL CONJUGATES OF A PHARMACEUTICAL AGENT AND A MOIETY CAPABLE OF BINDING TO A GLUCOSE SENSING PROTEIN” (SANOFI, priority 2017, published 2021).
